# Laboratory results from US20220306630A1, “AGONISTS OF ROR GAMMAt” (BRISTOL-MYERS SQUIBB COMPANY, priority 2019, published 2022).
# Molecular target: T1, RORgT (Homo sapiens, UniProt P51449)
# T1 construct: Gal4 (fusion partner); expressed in transfected cells; host or cells: engineered Jurkat cells (Jurkat pEx/Gal/hRORγ CLBD/HYG pG5luc/blast)
# T1 sequence (P51449 267-516): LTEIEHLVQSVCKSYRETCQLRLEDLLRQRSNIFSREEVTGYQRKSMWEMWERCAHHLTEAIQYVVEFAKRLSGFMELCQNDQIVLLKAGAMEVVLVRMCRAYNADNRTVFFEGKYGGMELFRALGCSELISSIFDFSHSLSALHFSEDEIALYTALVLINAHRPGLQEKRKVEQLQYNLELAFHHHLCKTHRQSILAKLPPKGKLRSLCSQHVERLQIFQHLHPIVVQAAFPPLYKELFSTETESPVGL
# Assay: RORgT Gal4 Luciferase Reporter Gene Assay
# Type: cell-based
# Details: RORg_GAL4 EC50 (nM), engineered Jurkat cells overexpressing RORgT (LBD or full length) with Gal4 Luc reporter; 18 hours at 37° C.; 40 μM to 0.67 nM
# Protocol: The compound and the cells were incubated for 18 hours at 37° C. in a cell culture incubator. Cells were then lysed with 15 uL of Steady-Glo Luciferase Assay reagent (Promega EZ550), followed by centrifuging the assay plates at 1500 RPM for 1 minute. Subsequently, the plates were read on the Envision (PerkinElmer). The inhibition of constitutive activity of RORgT achieved by graded concentrations of compound was calculated as a percentage of the luminescence signal window reduction over a control compound.
row,Compound,EC50 [nM]
1,CC(C)c1cc(F)cc(Oc2c(Cl)ccc(C(=O)N3CCN(S(C)(=O)=O)CC3)c2Cl)c1 [Example 263],105

# Same assay, conditions: engineered Jurkat cells overexpressing RORgT (LBD or full length) with Gal4 Luc reporter; 18 hours at 37° C.; 40 μM to 0.67 nM; read-out: RORg_GAL4 EC50
row,Compound,EC50 [nM]
1,COc1ccc(Oc2c(Cl)ccc(C(=O)N3CCc4ccccc4C3)c2Cl)cc1C(C)C [Example 179],1130
2,CCS(=O)(=O)N1CCC(OCC(=O)NCc2ccc(Cl)c(Oc3ccc(OC)c(C(C)C)c3)c2Cl)CC1 [Example 223],1110
3,CC(C)c1cc(F)cc(Oc2c(Cl)ccc(NC(=O)CC3CCN(S(C)(=O)=O)CC3)c2Cl)c1 [Example 130],5.5
4,COc1ccc(Oc2c(Cl)cc(NC(=O)CN3CC[C@H](NS(=O)(=O)C4CC4)C3)cc2Cl)cc1C(C)C [Example 170],370
5,COc1ccc(Oc2c(Cl)cc(NC(=O)c3ccccc3)cc2Cl)cc1C(C)C [Example 299],20000
6,CC(C)(F)c1cc(F)cc(Oc2c(Cl)cc(NC(=O)CN3CCN(S(C)(=O)=O)CC3)cc2Cl)c1 [Example 334],6.6
7,CCS(=O)(=O)N1CCC(CNC(=O)c2ccc(Cl)c(Oc3cc(F)cc(C(C)C)c3)c2Cl)CC1 [Example 115],25
8,COc1ccc(Oc2c(Cl)cc(NC(=O)N3CCOCC3)cc2Cl)cc1C(C)C [Example 236],597
9,CC(C)c1cc(F)cc(Oc2c(Cl)cc(NC(=O)CN3CCN(S(C)(=O)=O)CC3)cc2Cl)c1 [Example 332],7.6
10,COc1ccc(Oc2c(Cl)ccc(CNC(=O)C3CCN(S(N)(=O)=O)CC3)c2Cl)cc1C(C)C [Example 63],31
11,COc1ccc(Oc2c(Cl)ccc(C(=O)NCCc3ncn[nH]3)c2Cl)cc1C(C)C [Example 218],328
12,COc1ccc(Oc2c(Cl)ccc(C(=O)NCCc3nc4ccccc4s3)c2Cl)cc1C(C)C [Example 178],336
13,CC(C)c1cc(Oc2c(Cl)ccc(C(=O)NCC3CCN(S(C)(=O)=O)CC3)c2Cl)ccc1F [Example 113],27
14,COC(=O)CNC(=O)c1ccc(Cl)c(Oc2ccc(OC)c(C(C)C)c2)c1Cl [Example 77],953
15,CC(c1cc(F)cc(Oc2c(Cl)ccc(C(=O)N3CCC4(CC3)CN(S(C)(=O)=O)C4)c2Cl)c1)C(F)(F)F (centres unmarked) [Example 357],11
16,COc1ccc(Oc2c(Cl)ccc(NC(=O)CN3CCN(S(C)(=O)=O)CC3)c2Cl)cc1C(C)C [Example 106],32
17,COc1ccc(Oc2c(Cl)ccc(C(=O)NCC3CCN(S(=O)(=O)C4CC4)CC3)c2Cl)cc1C(C)C [Example 92],24
18,COc1ccc(Oc2c(Cl)cc(C(=O)NCc3ccc(S(N)(=O)=O)cc3)cc2Cl)cc1C(C)C [Example 156],1930
19,"COc1ccc(Oc2c(Cl)cc(NC(=O)CN3CCN(S(N)(=O)=O)CC3)cc2Cl)cc1C(C)C [Example 48, N-(3,5-dichloro-4-(3-isopropyl-4-methoxyphenoxy)phenyl)-2-(4-sulfamoylpiperazin-1-yl)acetamide]",105
20,COc1ccc(Oc2c(Cl)ccc(C(=O)NCCC3CCS(=O)(=O)CC3)c2Cl)cc1C(C)C [Example 84],152

row,Compound,EC50 [nM]
1,CC(C)c1cc(Oc2c(Cl)cc(NC(=O)CC3CCN(S(C)(=O)=O)CC3)cc2Cl)ccc1OC(F)(F)F [Example 260],102
2,COc1ccc(Oc2c(Cl)cc(C(=O)NCc3cnc(C)cn3)cc2Cl)cc1C(C)C [Example 155],4750
3,"COc1ccc(Oc2c(F)cc(NC(=O)Cc3cccnc3)cc2F)cc1C(C)C [Example 40, N-(3,5-difluoro-4-(3-isopropyl-4-methoxyphenoxy)phenyl)-2-(pyridin-3-yl)acetamide]",2450
4,CC(C)c1cc(F)cc(Oc2c(Cl)cc(NC(=O)CC3CC(=O)NC(=O)C3)cc2Cl)c1 [Example 330],237
5,COc1ncc(Oc2c(Cl)ccc(CNC(=O)c3ccc(S(C)(=O)=O)cc3)c2Cl)cc1C(C)C [Example 145],8.5
6,CC(C)c1cc(F)cc(Oc2c(Cl)ccc(CNC(=O)c3ccc(S(C)(=O)=O)cc3)c2Cl)c1 [Example 149],15
7,COc1ccc(Oc2c(Cl)ccc(C(=O)NCC3CCN(S(N)(=O)=O)CC3)c2Cl)cc1C(C)C [Example 96],13
8,CCCCNC(=O)c1ccc(Cl)c(Oc2ccc(OC)c(C(C)C)c2)c1Cl [Example 209],659
9,"COc1ccc(Oc2c(Cl)cc(NC(=O)C[C@H]3CCCN(S(C)(=O)=O)C3)cc2Cl)cc1C(C)C [Example 44, (R)—N-(3,5-dichloro-4-(3-isopropyl-4-methoxyphenoxy)phenyl)-2-(1-(methylsulfonyl)piperidin-3-yl)acetamide]",120
10,COc1ccc(Oc2c(Cl)cc(NC(=O)CN3CC4(C3)CN(S(=O)(=O)C3CC3)C4)cc2Cl)cc1C(C)C [Example 229],891
11,COc1ncc(Oc2c(Cl)cc(NC(=O)CN3CCC(S(C)(=O)=O)CC3)cc2Cl)cc1C(C)C [Example 268],40
12,"COc1ccc(Oc2c(Cl)cc(NC(=O)CC3CCN(S(N)(=O)=O)CC3)cc2Cl)cc1C(C)C [Example 46, N-(3,5-dichloro-4-(3-isopropyl-4-methoxyphenoxy)phenyl)-2-(1-sulfamoylpiperidin-4-yl)acetamide]",438
13,COc1ccc(Oc2c(Cl)ccc(C(=O)NCCCn3ccnc3)c2Cl)cc1C(C)C [Example 80],287
14,CC1(c2cc(F)cc(Oc3c(Cl)cc(NC(=O)CC4CCN(C(=O)C(F)(F)F)CC4)cc3Cl)c2)CC1 [Example 275],12
15,COc1ccc(Oc2c(Cl)cc(NC(=O)Cc3cncn3C)cc2Cl)cc1C(C)C [Example 248],2250
16,"CC(C)c1cc(F)cc(Oc2c(Cl)cc(NC(=O)OC3CCCN(S(C)(=O)=O)C3)cc2Cl)c1 (centres unmarked) [Example 25, 1-(methylsulfonyl)piperidin-3-yl (3,5-dichloro-4-(3-fluoro-5-isopropylphenoxy)phenyl)carbamate]",626
17,CCS(=O)(=O)N1CCC(C(=O)NCc2ccc(Cl)c(Oc3ccc(OC)c(C(C)C)c3)c2Cl)CC1 [Example 212],11
18,COc1ccc(Oc2c(Cl)cc(NC(=O)Cc3cnn(S(C)(=O)=O)c3)cc2Cl)cc1C(C)(C)C [Example 256],153
19,COc1ccc(Oc2c(Cl)ccc(CNC(=O)c3ccc(S(C)(=O)=O)cc3Cl)c2Cl)cc1C(C)C [Example 62],96
20,C=C(C)c1cc(F)cc(Oc2c(Cl)cc(NC(=O)CC3CCN(S(C)(=O)=O)CC3)cc2Cl)c1 [Example 358],6.6

row,Compound,EC50 [nM]
1,COc1ccc(Oc2c(Cl)ccc(C(=O)N(C)Cc3ccc(S(C)(=O)=O)cc3)c2Cl)cc1C(C)C [Example 67],116
2,COc1ccc(Oc2c(Cl)cc(NC(=O)NCCS(N)(=O)=O)cc2Cl)cc1C(C)C [Example 234],635
3,"COc1ncc(Oc2c(Cl)cc(NC(=O)CC3CCN(S(C)(=O)=O)CC3)cc2Cl)cc1C(C)(C)F [Example 28, N-(3,5-dichloro-4-((5-(2-fluoropropan-2-yl)-6-methoxypyridin-3-yl)oxy)phenyl)-2-(1-(methylsulfonyl)piperidin-4-yl)acetamide]",6.9
4,CC(C)c1cc(F)cc(Oc2c(Cl)cc(NC(=O)CC3CCN(S(N)(=O)=O)CC3)cc2Cl)c1 [Example 270],22
5,CC1(c2cc(F)cc(Oc3c(Cl)ccc(C(=O)N4CCC5(CC4)CN(S(C)(=O)=O)C5)c3Cl)c2)CC1 [Example 277],5.6
6,COc1ncc(Oc2c(Cl)ccc(CNC(=O)C3CCN(S(N)(=O)=O)CC3)c2Cl)cc1C(C)C [Example 147],9.6
7,COc1ccc(Oc2c(Cl)cc(NC(=O)[C@H]3CC[C@@H](C(=O)OC)CC3)cc2Cl)cc1C(C)C [Example 339],983
8,"COc1ccc(Oc2c(Cl)cc(NC(=O)Cc3cccnc3)cc2Cl)cc1C1CC1 [Example 37, N-(3,5-dichloro-4-(3-cyclopropyl-4-methoxyphenoxy)phenyl)-2-(pyridin-3-yl)acetamide]",1120
9,COC(=O)NCC1CN(c2cc(Cl)c(Oc3ccc(OC)c(C(C)C)c3)c(Cl)c2)C(=O)O1 (centres unmarked) [Example 251],433
10,COc1ccc(Oc2c(Cl)cc(NC(=O)CN(C)C)cc2Cl)cc1C(C)C [Example 280],656
11,COc1ncc(Oc2c(Cl)cc(NC(=O)CC3CCN(S(=O)(=O)C4CC4)CC3)cc2Cl)cc1C(C)C [Example 119],11
12,COc1ccc(Oc2c(Cl)ccc(C(=O)Nc3ccccc3CC#N)c2Cl)cc1C(C)C [Example 215],37
13,COc1ccc(Oc2c(Cl)ccc(CNS(=O)(=O)C3CCN(S(N)(=O)=O)CC3)c2Cl)cc1C(C)C [Example 98],20
14,COc1ccc(Oc2c(Cl)cc(NC(=O)c3c[nH]c4ncccc34)cc2Cl)cc1C(C)C [Example 349],1370
15,CC(C)c1cc(F)cc(Oc2c(Cl)ccc(CNC(=O)C3CCN(S(N)(=O)=O)CC3)c2Cl)c1 [Example 151],9.9
16,CCS(=O)(=O)N1CCN(CC(=O)NCc2ccc(Cl)c(Oc3ccc(OC)c(C(C)C)c3)c2Cl)CC1 [Example 185],28
17,COc1ccc(Oc2c(Cl)ccc(C(=O)NCCN3CCCC3=O)c2Cl)cc1C(C)C [Example 83],1170
18,"COc1ccc(Oc2c(Cl)cc(NC(=O)OCCS(C)(=O)=O)cc2Cl)cc1C(C)C [Example 1, 2-(methylsulfonyl)ethyl (3,5-dichloro-4-(3-isopropyl-4-methoxyphenoxy)phenyl)carbamate]",829
